Test results as given in patent US12403088B2, “Ophthalmic compositions and methods for reducing oxidative damage to an eye lens” (University of Louisville Research Foundation, Inc., priority 2015, dated 2025).

Tested on: excised porcine lenses
Assay: Protein oxidation (OxyBlot) in excised porcine lenses cultured under hyperoxic conditions mimicking post-vitrectomy oxygen levels
Assay type: cell-based
Experimental: To assess the ability of the antioxidant compositions including non-reducing sugars to reduce oxidative damage to an eye lens of a subject, trehalose, a non-reducing disaccharide, was applied to lenses being cultured under hyperoxic (high oxygen) conditions that mimic post-vitrectomy intravitreal oxygen levels. Briefly, six excised porcine lenses were cultured in M199 media with 4% porcine serum at 37° C. for 1 week to acclimate to culture conditions. Then, 3 lenses were exposed to media with 7.5% trehalose while three control lenses remained untreated. At regular intervals, incubated lenses were examined under a dissecting microscope against a background of black gridlines. The oxygen concentration was controlled to mimic post-vitrectomy conditions. After 10 days, each lens was analyzed for protein oxidation using the OxBlot Oxidized Protein Detection Kit (Chemicon, International, Billerica, MA) to quantify the ability of the gel application method to protect the lens.
The method described above was used to compare the effect of a subject trehalose composition freely dispersed in the tissue culture media (FIG. 1, first bar) to a biogel composition that was described by Tezel et al. in WO2014081969A1 (“Compositions and methods for reducing oxidative damage”) and which includes trehalose within a polymer gel. […]

## OC[C@H]1O[C@H](O[C@H]2O[C@H](CO)[C@@H](O)[C@H](O)[C@H]2O)[C@H](O)[C@@H](O)[C@@H]1O [trehalose, α,α-1,1-Trehalose]
Administration of trehalose to the eye lens, ex vivo, FIG. 1
  amount of protein oxidation in the lens (in words): reduced an amount of protein oxidation in the lens
Trehalose composition freely dispersed in tissue culture media (7.5% trehalose), hyperoxic culture, 10 days, FIG. 1 bar 1
  reduction in protein oxidation levels to: about 20%
